Test results reported in patent publication US11834450B2, “Compounds having ((3-nitrophenyl)sulfonyl)acetamide as BCL-2 inhibitors” (Eil Therapeutics, Inc., priority 2021, dated 2023).
pEC50, pIC50: −log10 of the molar value.

Legend:
[1] = system: MOLT-4 cells; assay: Cell viability assay MOLT-4 (CellTiter-Glo); assay type: cell-based; conditions: Homo sapiens, 72 h; MOLT-4 cells, 3 days, CellTiter-Glo; read-out: MOLT-4 (CC50 code)
Procedure, shortened: (§1)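 Cells were seeded at 2000/well (HEK293, in DMEM, pre-incubated a day) or 4000/well (other lines, in RPMI-1640). Serially diluted compound was added and plates incubated 3 days at 37 °C, with viability read by CellTiter-Glo luminescence.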

[2] = system: caspase-3 and -7 activities in RS4-11 cells; assay: Cas-3/7 activation (Caspase-Glo 3/7) in RS4-11 cells; assay type: cell-based; conditions: Homo sapiens, 3.5 h at 37° C. and 30 min at r.t., read-out: Cas-3/7 (EC50 code)
Procedure, shortened: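 RS4-11 cells were exposed to graded compound concentrations for 3.5 h at 37° C/5% CO2, then 30 min at room temperature. Caspase-3/7 activity was measured by luminescence after 30 min with a DEVD luminogenic substrate reagent.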

[3] = Cell viability assay HEK293 (CellTiter-Glo); assay type: cell-based; conditions: human, HEK293 cells, read-out: HEK293 (CC50 code)
Procedure, shortened: as §1

[4] = molecular target: T1, BCL-XL (Homo sapiens, UniProt Q07817); assay: BCL-XL TR-FRET Assay (primary PPI inhibition); assay type: binding; conditions: 60 min incubation; read-out: BCLxL (IC50 code, BCL-XL TR-FRET)
T1 construct: purchased BPS Bioscience #50223
Procedure, shortened: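 10.5 ng His-tagged BCL-XL incubated 60 min with test compound, BCL-XL peptide ligand (1:80), Tb-labelled anti-His donor and dye-labelled acceptor (each 1:100). Displacement read as TR-FRET, excitation 340 nm, emission 620 and 665 nm, 60 μs delay, 500 μs integration.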

[5] = molecular target: T2, BCL-2 (Homo sapiens, UniProt P10415); assay: BCL-2 TR-FRET Assay (primary PPI inhibition); assay type: binding; conditions: 60 min incubation; read-out: BCL2 (IC50 code, BCL-2 TR-FRET)
T2 construct: purchased BPS Bioscience #50222

[6] = system: RS4-11 cells; assay: Cell viability assay RS4-11 (CellTiter-Glo); assay type: cell-based; conditions: Homo sapiens, 72 h; RS4-11 cells, 3 days, CellTiter-Glo; read-out: RS4-11 (CC50 code)
Procedure, shortened: as §1

T2 sequence (P10415 whole entry): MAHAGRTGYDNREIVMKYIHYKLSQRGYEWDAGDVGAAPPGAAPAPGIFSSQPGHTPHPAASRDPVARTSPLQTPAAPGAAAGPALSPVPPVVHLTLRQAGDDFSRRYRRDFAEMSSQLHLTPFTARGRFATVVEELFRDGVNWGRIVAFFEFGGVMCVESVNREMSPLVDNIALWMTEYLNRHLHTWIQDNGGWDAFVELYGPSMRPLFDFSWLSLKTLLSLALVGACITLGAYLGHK
T1 sequence (Q07817 whole entry): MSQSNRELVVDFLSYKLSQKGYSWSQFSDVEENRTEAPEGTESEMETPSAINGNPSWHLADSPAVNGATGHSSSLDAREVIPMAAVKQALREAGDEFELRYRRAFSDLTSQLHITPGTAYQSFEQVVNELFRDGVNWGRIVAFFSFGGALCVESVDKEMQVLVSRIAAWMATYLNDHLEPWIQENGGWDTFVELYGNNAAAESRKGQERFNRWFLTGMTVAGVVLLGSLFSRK

| Structure (SMILES) | CC50 [1] [µM] | pEC50 [2] | CC50 at 3 days [3] [µM] | pIC50 [4] | pIC50 [5] | CC50 [6] [µM] |
| --- | --- | --- | --- | --- | --- | --- |
| CC1(C)CN(CC2CCN(c3ccc(C(=O)NS(=O)(=O)c4ccc(NCC5CCOCC5)c([N+](=O)[O-])c4)c(Oc4cnc5[nH]ccc5c4)c3)CC2)Cc2ccccc21 [Compound 39, 4-[4-[(4,4-dimethyl-1,3-dihydroisoquinolin-2-yl)methyl]-1-piperidyl]-N-[3-nitro-4-(tetrahydropyran-4-ylmethylamino)phenyl]sulfonyl-2-(1H-pyrrolo[2,3-b]pyridin-5-yloxy)benzamide] | 2 to 10 | < 6.60 | > 25 | < 5.40 | < 7.30 | > 0.2 |
| CC(C)C(=O)N1Cc2ccc(Cl)cc2C[C@H]1CN1CCN(c2ccc(C(=O)NS(=O)(=O)c3ccc(NCC4CCOCC4)c([N+](=O)[O-])c3)c(Oc3cnc4[nH]ccc4c3)c2)CC1 [Compound 40, 4-[4-[[(3S)-6-chloro-2-(2-methylpropanoyl)-3,4-dihydro-1H-isoquinolin-3-yl]methyl]piperazin-1-yl]-N-[3-nitro-4-(tetrahydropyran-4-ylmethylamino)phenyl]sulfonyl-2-(1H-pyrrolo[2,3-b]pyridin-5-yloxy)benzamide] | 2 to 10 | < 6.60 | 10 to 25 | < 5.40 | < 7.30 | > 0.2 |
| O=C(NS(=O)(=O)c1ccc(NCC2CCOCC2)c([N+](=O)[O-])c1)c1ccc(N2CCC(CN3Cc4ccccc4CC3c3ccccc3)CC2)cc1Oc1cnc2[nH]ccc2c1 (stereo not drawn) [Compound 41, N-[3-nitro-4-(tetrahydropyran-4-ylmethylamino)phenyl]sulfonyl-4-[4-[(3-phenyl-3,4-dihydro-1H-isoquinolin-2-yl)methyl]-1-piperidyl]-2-(1H-pyrrolo[2,3-b]pyridin-5-yloxy)benzamide] | 2 to 10 | < 6.60 | > 25 | < 5.40 | < 7.30 | > 0.2 |
| O=C(NS(=O)(=O)c1ccc(NCC2CCOCC2)c([N+](=O)[O-])c1)c1ccc(N2CCN(CC(O)(c3ccccc3)c3ccc(Cl)cc3)CC2)cc1Oc1cnc2[nH]ccc2c1 (stereo not drawn) [Compound 43, 4-[4-[2-(4-chlorophenyl)-2-hydroxy-2-phenyl-ethyl]piperazin-1-yl]-N-[3-nitro-4-(tetrahydropyran-4-ylmethylamino)phenyl]sulfonyl-2-(1H-pyrrolo[2,3-b]pyridin-5-yloxy)benzamide] | 2 to 10 | < 6.60 | > 25 | < 5.40 | < 7.30 | > 0.2 |
| CC(C)C(=O)N1Cc2ccc(F)cc2C[C@H]1CN1CCN(c2ccc(C(=O)NS(=O)(=O)c3ccc(NCC4CCOCC4)c([N+](=O)[O-])c3)c(Oc3cnc4[nH]ccc4c3)c2)CC1 [Compound 45, 4-[4-[[(3S)-6-fluoro-2-(2-methylpropanoyl)-3,4-dihydro-1H-isoquinolin-3-yl]methyl]piperazin-1-yl]-N-[3-nitro-4-(tetrahydropyran-4-ylmethylamino)phenyl]sulfonyl-2-(1H-pyrrolo[2,3-b]pyridin-5-yloxy)benzamide] | > 10 | < 6.60 | > 25 | < 5.40 | < 7.30 | > 0.2 |
| O=C(NS(=O)(=O)c1ccc(NCC2CCOCC2)c([N+](=O)[O-])c1)c1ccc(N2CCC(CN3Cc4ccccc4C4(CCC4)C3)CC2)cc1Oc1cnc2[nH]ccc2c1 [Compound 46, N-[3-nitro-4-(tetrahydropyran-4-ylmethylamino)phenyl]sulfonyl-2-(1H-pyrrolo[2,3-b]pyridin-5-yloxy)-4-[4-(spiro[1,3-dihydroisoquinoline-4,1′-cyclobutane]-2-ylmethyl)-1-piperidyl]benzamide] | 2 to 10 | < 6.60 | > 25 | < 5.40 | < 7.30 | > 0.2 |
| CC(C)C(=O)N1Cc2cc(F)ccc2C[C@H]1CN1CCN(c2ccc(C(=O)NS(=O)(=O)c3ccc(NCC4CCOCC4)c([N+](=O)[O-])c3)c(Oc3cnc4[nH]ccc4c3)c2)CC1 [Compound 48, 4-[4-[[(3S)-7-fluoro-2-(2-methylpropanoyl)-3,4-dihydro-1H-isoquinolin-3-yl]methyl]piperazin-1-yl]-N-[3-nitro-4-(tetrahydropyran-4-ylmethylamino)phenyl]sulfonyl-2-(1H-pyrrolo[2,3-b]pyridin-5-yloxy)benzamide] | > 10 | < 6.60 | > 25 | < 5.40 | < 7.30 | > 0.2 |
| O=C(NS(=O)(=O)c1ccc(NCC2CCOCC2)c([N+](=O)[O-])c1)c1ccc(N2CCN(C[C@@H]3Cc4cc(F)ccc4CN3C(=O)C3CC3)CC2)cc1Oc1cnc2[nH]ccc2c1 [Compound 49, 4-[4-[[(3S)-2-(cyclopropanecarbonyl)-6-fluoro-3,4-dihydro-1H-isoquinolin-3-yl]methyl]piperazin-1-yl]-N-[3-nitro-4-(tetrahydropyran-4-ylmethylamino)phenyl]sulfonyl-2-(1H-pyrrolo[2,3-b]pyridin-5-yloxy)benzamide] | 2 to 10 | < 6.60 | > 25 | < 5.40 | 7.30 to 8.00 | > 0.2 |
| O=C(NS(=O)(=O)c1ccc(NCC2CCOCC2)c([N+](=O)[O-])c1)c1ccc(N2CCN(C[C@@H]3Cc4ccc(F)cc4CN3C(=O)C3CC3)CC2)cc1Oc1cnc2[nH]ccc2c1 [Compound 50, 4-[4-[[(3S)-2-(cyclopropanecarbonyl)-7-fluoro-3,4-dihydro-1H-isoquinolin-3-yl]methyl]piperazin-1-yl]-N-[3-nitro-4-(tetrahydropyran-4-ylmethylamino)phenyl]sulfonyl-2-(1H-pyrrolo[2,3-b]pyridin-5-yloxy)benzamide] | > 10 | < 6.60 | > 25 | < 5.40 | < 7.30 | > 0.2 |
| O=C(NS(=O)(=O)c1ccc(NCC2CCOCC2)c([N+](=O)[O-])c1)c1ccc(N2CCC(Cn3c(-c4ccc(Cl)cc4)nc4cccnc43)CC2)cc1Oc1cnc2[nH]ccc2c1 [Compound 51, 4-[4-[[2-(4-chlorophenyl)imidazo[4,5-b]pyridin-3-yl]methyl]-1-piperidyl]-N-[3-nitro-4-(tetrahydropyran-4-ylmethylamino)phenyl]sulfonyl-2-(1H-pyrrolo[2,3-b]pyridin-5-yloxy)benzamide] | 2 to 10 | < 6.60 | > 25 | < 5.40 | 7.30 to 8.00 | > 0.2 |
| CC1(O)CC[C@@H](CN2CCN(c3ccc(C(=O)NS(=O)(=O)c4ccc(NCC5CCOCC5)c([N+](=O)[O-])c4)c(Oc4cnc5[nH]ccc5c4)c3)CC2)[C@H](c2ccc(Cl)cc2)C1 (stereo partly drawn) [Compound 52, 4-[4-[[(1R,2R)-2-(4-chlorophenyl)-4-hydroxy-4-methyl-cyclohexyl]methyl]piperazin-1-yl]-N-[3-nitro-4-(tetrahydropyran-4-ylmethylamino)phenyl]sulfonyl-2-(1H-pyrrolo[2,3-b]pyridin-5-yloxy)benzamide] | 2 to 10 | ≥ 7.00 | 10 to 25 | ≥ 5.70 | 8.00 to 8.30 | < 0.1 |
| CC1=CC[C@@H](CN2CCN(c3ccc(C(=O)NS(=O)(=O)c4ccc(NCC5CCOCC5)c([N+](=O)[O-])c4)c(Oc4cnc5[nH]ccc5c4)c3)CC2)[C@H](c2ccc(Cl)cc2)C1 [Compound 54, 4-[4-[[(1R,6R)-6-(4-chlorophenyl)-4-methyl-cyclohex-3-en-1-yl]methyl]piperazin-1-yl]-N-[3-nitro-4-(tetrahydropyran-4-ylmethylamino)phenyl]sulfonyl-2-(1H-pyrrolo[2,3-b]pyridin-5-yloxy)benzamide] | 2 to 10 | 6.60 to 7.00 | 10 to 25 | 5.40 to 5.70 | 7.30 to 8.00 | 0.1 to 0.2 |
| CC1=CC[C@@H]2C[C@H]1[C@H](c1ccc(Cl)cc1)N(CC1CCN(c3ccc(C(=O)NS(=O)(=O)c4ccc(NCC5CCOCC5)c([N+](=O)[O-])c4)c(Oc4cnc5[nH]ccc5c4)c3)CC1)C2 [Compound 55, 4-[4-[[(1R,4R, 5R)-4-(4-chlorophenyl)-6-methyl-3-azabicyclo[3.3.1]non-6-en-3-yl]methyl]-1-piperidyl]-N-[3-nitro-4-(tetrahydropyran-4-ylmethylamino)phenyl]sulfonyl-2-(1H-pyrrolo[2,3-b]pyridin-5-yloxy)benzamide] | 2 to 10 | < 6.60 | > 25 | < 5.40 | < 7.30 | > 0.2 |
